Where two headings read alike, the source gives them in different places.
Target: T1, wild-type mouse TMEM16A (Mus musculus, UniProt Q8BHY3)
T1 construct: expressed in transfected cells; host or cells: HEK293T
T1 sequence (Q8BHY3 1-960): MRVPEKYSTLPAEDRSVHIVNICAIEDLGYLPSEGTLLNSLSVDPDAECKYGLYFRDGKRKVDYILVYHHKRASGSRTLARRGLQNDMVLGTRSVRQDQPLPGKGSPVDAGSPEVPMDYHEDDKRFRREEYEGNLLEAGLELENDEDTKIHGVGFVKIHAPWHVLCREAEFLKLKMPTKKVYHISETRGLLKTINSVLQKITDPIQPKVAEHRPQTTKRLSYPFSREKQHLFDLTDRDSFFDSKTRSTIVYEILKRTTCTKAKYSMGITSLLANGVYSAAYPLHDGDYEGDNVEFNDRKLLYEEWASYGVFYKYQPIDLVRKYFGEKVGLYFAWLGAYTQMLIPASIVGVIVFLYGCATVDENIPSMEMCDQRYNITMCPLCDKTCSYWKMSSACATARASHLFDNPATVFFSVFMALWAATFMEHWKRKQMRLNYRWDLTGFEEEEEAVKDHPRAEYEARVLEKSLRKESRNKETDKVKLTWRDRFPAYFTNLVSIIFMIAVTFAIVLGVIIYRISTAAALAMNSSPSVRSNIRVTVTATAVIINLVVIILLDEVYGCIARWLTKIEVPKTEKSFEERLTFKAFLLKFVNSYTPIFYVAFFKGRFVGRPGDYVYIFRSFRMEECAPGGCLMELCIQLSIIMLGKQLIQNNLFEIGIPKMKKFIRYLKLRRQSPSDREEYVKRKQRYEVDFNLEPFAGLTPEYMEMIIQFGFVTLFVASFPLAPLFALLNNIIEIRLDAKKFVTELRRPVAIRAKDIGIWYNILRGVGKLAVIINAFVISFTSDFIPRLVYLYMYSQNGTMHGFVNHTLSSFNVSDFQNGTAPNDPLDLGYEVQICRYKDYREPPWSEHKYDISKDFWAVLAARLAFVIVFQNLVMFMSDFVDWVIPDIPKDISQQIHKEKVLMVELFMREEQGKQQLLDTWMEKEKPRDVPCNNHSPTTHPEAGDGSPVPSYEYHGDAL
Assay: Inside-out patch recording of 1PBC block, wild-type TMEM16A
Type: cell-based
Conditions: for remaining activity at 1 µM / remaining activity at 3 µM / remaining activity at 10 µM: read-out: I/Imax
Method: HEK293T cells (ATCC CRL-1573) were maintained in Dulbecco’s modified Eagle’s medium (DMEM; Sigma-Aldrich) supplemented with 10 U ml^−1 penicillin, 0.1 mg ml^−1 streptomycin (Sigma-Aldrich), 2 mM L-glutamine (Sigma-Aldrich), and 10% FBS (Sigma-Aldrich) in a humidified atmosphere containing 5% CO2 at 37 °C. HEK293S GnTI^− cells (ATCC CRL-3022) were maintained in HyClone HyCell TransFx-H medium (GE Healthcare) supplemented with 10 U ml^−1 penicillin, 0.1 mg ml^−1 streptomycin, 4 mM L-glutamine, 0.15% poloxamer 188 (Sigma-Aldrich), and 1% FBS in an atmosphere containing 5% CO2 at 185 rpm at 37 °C. The ac splice variant of mouse TMEM16A (UniProt ID: Q8BHY3), mouse TMEM16B (UniProt ID: Q8CFW1), or mouse TMEM16F (UniProt ID: Q6P9J9) bearing a 3C cleavage site, a Venus YFP, a Myc tag, and a Streptavidin-binding peptide (SBP) downstream of the open reading frame in a modified pcDNA3.1 vector (Invitrogen) were used as described previously[21],[31]. Mutations were introduced using a modified QuikChange method[58] and were verified by sequencing.
HEK293T cells were transfected with 3–4 μg DNA per 6 cm Petri dish using the calcium phosphate co-precipitation method and were used within 24–96 h after transfection. Recordings were performed on inside-out patches excised from HEK293T cells expressing the construct of interest. Patch pipettes were pulled from borosilicate glass capillaries (O.D. 1.5 mm, I.D. 0.86 mm, Sutter Instrument) and were fire-polished with a microforge (Narishige) before use. Pipette resistance was typically 3–8 MΩ when filled with the recording solutions detailed below. Seal resistance was typically 4 GΩ or higher. Voltage-clamp recordings were made using Axopatch 200B, Digidata 1550, and Clampex 10.7 (Molecular Devices). Analog signals were filtered with the in-built 4-pole Bessel filter at 10 kHz and were digitized at 20 kHz. Solution exchange was achieved using a gravity-fed system through a theta glass pipette mounted on an ultra-fast piezo-driven stepper (Siskiyou). […] All recordings were performed at 20 °C.
A symmetrical ionic condition was used throughout. Stock solution with Ca^2+-EGTA contained 150 mM NaCl, 5.99 mM Ca(OH)2, 5 mM EGTA, and 10 mM HEPES at pH 7.40. Stock solution with EGTA contained 150 mM NaCl, 5 mM EGTA, and 10 mM HEPES at pH 7.40. Free Ca^2+ concentrations were adjusted by mixing the stock solutions at the required ratios calculated using the WEBMAXC program (http://web.stanford.edu/~cpatton/webmaxcS.htm). Patch pipettes were filled with the stock solution with Ca^2+-EGTA, which has a free Ca^2+ concentration of 1 mM. 1PBC (ChemBridge) stock was reconstituted in anhydrous DMSO (Sigma-Aldrich) at 100 mM and stored at −20 °C. Working solutions with 1PBC were prepared by serial dilution. Unless otherwise stated, experiments were performed at a saturating Ca^2+ concentration as shown in Supplementary Table 1 and the primary data were corrected for current rundown as described previously[21],[25].
Concentration-response relations, obtained from the ratio of the I-V plots before and after the application of the blocker, were fitted to the Hill equation,1 I/Imax=1/1+IC50/[blocker]^h where I/Imax is the normalized current responses, IC50 defines the concentration at which inhibition is at its half-maximum, and h is the Hill coefficient.

## N#Cc1c(C(F)(F)F)cc(O)n2c1nc1ccccc12 [1PBC]
  Hill coefficient for 1PBC block: 1
0 mV, 2 µM Ca2+
  IC50: 4.4 µM
0.4 μM Ca2+, 80 mV, empirical Hill fit of data scaled to open probability
  IC50: 3.2 µM
0.8 μM Ca2+, 80 mV, empirical Hill fit of data scaled to open probability
  IC50: 2.13 µM
1 µM 1PBC, 0 mV, 2 µM Ca2+
  Steady-state current (normalized): 0.001783
  remaining activity at 1 µM: 73%
1 µM 1PBC, 400 nM Ca2+, 80 mV
  I/Imax scaled to open probability: 0.3757
1 µM 1PBC, 800 nM Ca2+, 80 mV
  I/Imax scaled to open probability: 0.4419
1 µM 1PBC, 2 µM Ca2+, 80 mV
  I/Imax scaled to open probability: 0.5218
1 µM 1PBC, 20 mV, 2 µM Ca2+
  Steady-state current (normalized): 0.134
  remaining activity at 1 µM: 68.9%
1 µM 1PBC, 40 mV, 2 µM Ca2+
  Steady-state current (normalized): 0.2463
  remaining activity at 1 µM: 65.3%
1 µM 1PBC, 60 mV, 2 µM Ca2+
  Steady-state current (normalized): 0.3454
  remaining activity at 1 µM: 62.6%
1 µM 1PBC, 80 mV, 2 µM Ca2+
  Steady-state current (normalized): 0.4256
  remaining activity at 1 µM: 60.1%
1 µM 1PBC, 100 mV, 2 µM Ca2+
  Steady-state current (normalized): 0.5103
  remaining activity at 1 µM: 60.1%
1 µM 1PBC, 120 mV, 2 µM Ca2+
  Steady-state current (normalized): 0.5951
  remaining activity at 1 µM: 61.1%
1 µM 1PBC, 140 mV, 2 µM Ca2+
  Steady-state current (normalized): 0.7035
  remaining activity at 1 µM: 64.7%
1 µM 1PBC, -20 mV, 2 µM Ca2+
  Steady-state current (normalized): -0.1486
  remaining activity at 1 µM: 77.2%
1 µM 1PBC, -40 mV, 2 µM Ca2+
  Steady-state current (normalized): -0.3126
  remaining activity at 1 µM: 80.5%
1 µM 1PBC, -60 mV, 2 µM Ca2+
  Steady-state current (normalized): -0.4807
  remaining activity at 1 µM: 83%
1 µM 1PBC, -80 mV, 2 µM Ca2+
  Steady-state current (normalized): -0.661
  remaining activity at 1 µM: 86.1%
1 µM 1PBC, -100 mV, 2 µM Ca2+
  Steady-state current (normalized): -0.836
  remaining activity at 1 µM: 88%
1 µM 1PBC, -120 mV, 2 µM Ca2+
  Steady-state current (normalized): -1.004
  remaining activity at 1 µM: 89.7%
1 µM 1PBC, -140 mV, 2 µM Ca2+
  Steady-state current (normalized): -1.145
  remaining activity at 1 µM: 89.1%
2 μM Ca2+, 80 mV, empirical Hill fit of data scaled to open probability
  IC50: 1.94 µM
3 µM 1PBC, 0 mV, 2 µM Ca2+
  Steady-state current (normalized): 0.001316
  remaining activity at 3 µM: 53.9%
3 µM 1PBC, 400 nM Ca2+, 80 mV
  I/Imax scaled to open probability: 0.2553
3 µM 1PBC, 800 nM Ca2+, 80 mV
  I/Imax scaled to open probability: 0.2864
3 µM 1PBC, 2 µM Ca2+, 80 mV
  I/Imax scaled to open probability: 0.3306
3 µM 1PBC, 20 mV, 2 µM Ca2+
  Steady-state current (normalized): 0.0952
  remaining activity at 3 µM: 48.9%
3 µM 1PBC, 40 mV, 2 µM Ca2+
  Steady-state current (normalized): 0.1678
  remaining activity at 3 µM: 44.5%
3 µM 1PBC, 60 mV, 2 µM Ca2+
  Steady-state current (normalized): 0.2233
  remaining activity at 3 µM: 40.5%
3 µM 1PBC, 80 mV, 2 µM Ca2+
  Steady-state current (normalized): 0.2697
  remaining activity at 3 µM: 38.1%
3 µM 1PBC, 100 mV, 2 µM Ca2+
  Steady-state current (normalized): 0.3173
  remaining activity at 3 µM: 37.3%
3 µM 1PBC, 120 mV, 2 µM Ca2+
  Steady-state current (normalized): 0.3753
  remaining activity at 3 µM: 38.6%
3 µM 1PBC, 140 mV, 2 µM Ca2+
  Steady-state current (normalized): 0.4543
  remaining activity at 3 µM: 41.8%
3 µM 1PBC, -20 mV, 2 µM Ca2+
  Steady-state current (normalized): -0.1133
  remaining activity at 3 µM: 58.9%
3 µM 1PBC, -40 mV, 2 µM Ca2+
  Steady-state current (normalized): -0.2482
  remaining activity at 3 µM: 63.9%
3 µM 1PBC, -60 mV, 2 µM Ca2+
  Steady-state current (normalized): -0.3977
  remaining activity at 3 µM: 68.6%
3 µM 1PBC, -80 mV, 2 µM Ca2+
  Steady-state current (normalized): -0.557
  remaining activity at 3 µM: 72.6%
3 µM 1PBC, -100 mV, 2 µM Ca2+
  Steady-state current (normalized): -0.718
  remaining activity at 3 µM: 75.6%
3 µM 1PBC, -120 mV, 2 µM Ca2+
  Steady-state current (normalized): -0.8735
  remaining activity at 3 µM: 78.1%
3 µM 1PBC, -140 mV, 2 µM Ca2+
  Steady-state current (normalized): -1.031
  remaining activity at 3 µM: 80.3%
10 µM 1PBC, 0 mV, 2 µM Ca2+
  Steady-state current (normalized): 0.0007397
  remaining activity at 10 µM: 30.3%
10 µM 1PBC, 400 nM Ca2+, 80 mV
  I/Imax scaled to open probability: 0.1226
10 µM 1PBC, 800 nM Ca2+, 80 mV
  I/Imax scaled to open probability: 0.1094
10 µM 1PBC, 2 µM Ca2+, 80 mV
  I/Imax scaled to open probability: 0.1474
10 µM 1PBC, 20 mV, 2 µM Ca2+
  Steady-state current (normalized): 0.04925
  remaining activity at 10 µM: 25.3%
10 µM 1PBC, 40 mV, 2 µM Ca2+
  Steady-state current (normalized): 0.08188
  remaining activity at 10 µM: 21.7%
10 µM 1PBC, 60 mV, 2 µM Ca2+
  Steady-state current (normalized): 0.1024
  remaining activity at 10 µM: 18.6%
10 µM 1PBC, 80 mV, 2 µM Ca2+
  Steady-state current (normalized): 0.1202
  remaining activity at 10 µM: 17%
10 µM 1PBC, 100 mV, 2 µM Ca2+
  Steady-state current (normalized): 0.1383
  remaining activity at 10 µM: 16.3%
10 µM 1PBC, 120 mV, 2 µM Ca2+
  Steady-state current (normalized): 0.1588
  remaining activity at 10 µM: 16.3%
10 µM 1PBC, 140 mV, 2 µM Ca2+
  Steady-state current (normalized): 0.1862
  remaining activity at 10 µM: 17.1%
10 µM 1PBC, -20 mV, 2 µM Ca2+
  Steady-state current (normalized): -0.06795
  remaining activity at 10 µM: 35.3%
10 µM 1PBC, -40 mV, 2 µM Ca2+
  Steady-state current (normalized): -0.1586
  remaining activity at 10 µM: 40.9%
